Data taken from paper PMC8954831, “Design, Synthesis, Molecular Docking, and Biological Evaluation of Pyrazole Hybrid Chalcone Conjugates as Potential Anticancer Agents and Tubulin Polymerization Inhibitors” (Pharmaceuticals, 2022).
Where two headings read alike, the source gives them in different places.

Tests used:
[1] = tested on: MCF-7 (breast cancer cell line); test: In vitro cytotoxicity, MTT assay, MCF-7; format: cell-based, human
Protocol: (§1) The resultant compounds were tested for their in vitro cytotoxic activity by MTT assay against breast (MCF-7), cervical (SiHa), and prostate (PC-3) cancer cell lines, and the human embryonic kidney cell line (HEK). […] Subsequently, SAR studies were done by investigating the effect of substituents on cytotoxic activity.
(§2) Human cervical cancer cell line SiHa, human breast cancer cell line MCF-7, human prostate cancer cell line PC-3, and human embryonic kidney HEK-293 cells were procured from the National Centre for Cell Sciences (NCCS) Pune, India. In this experiment, antibiotics (100 units/mL penicillin and 100 mg L^−1 streptomycin were grown as a monolayer culture in Dulbecco’s modified Eagle’s medium containing 10% fetal bovine serum) were cultured in a humidified atmosphere of 5% CO2 at 37 °C in T-75 flasks and subcultured twice a week.
(§3) The cytotoxic effects of the selected compounds were evaluated by MTT assay on the above-mentioned cell lines. Initially, 2 × 10^4 cells/well were seeded into 96-well plates (150 µL/well) in triplicates and allowed to grow. The cells were incubated for 24 h and subsequently treated with varying concentrations of the compounds. After 48 h, the cells were incubated with 20 μL of MTT (5 mg/mL in PBS) in a fresh medium for 4 h at 37 °C. MTT is a metabolic substrate that is reduced to give formazan crystals, which were solubilized in DMSO (150 µL/well) and analyzed by reading the absorbance at 540 nm after 15 min of the incubation period on the iMark Microplate Reader (Bio-Rad). Percentage viability and IC50 values were used to determine the relative absorbance of treated versus control (untreated) cells.

[2] = tested on: PC-3 (prostate cancer cell line); test: In vitro cytotoxicity, MTT assay, PC-3; format: cell-based; conditions: Homo sapiens, 48 h, read-out: IC50 PC3
Protocol: as §1, §2, §3

[3] = tested on: HEK-293 (human embryonic kidney cells); test: In vitro cytotoxicity, MTT assay, HEK-293 normal cells; format: cell-based; conditions: for IC50: read-out: IC50 HEK-293
Protocol: as §1, §2, §3

[4] = molecular target: tubulin (purified brain tubulin) (Sus scrofa, UniProt P02550+P02554); test: In vitro tubulin polymerization assay (fluorescence); format: biochemical; conditions: for inhibition at 10 µM: read-out: % Inhibition of Tubulin Polymerization at 10 µM; for inhibition at 3 µM: read-out: % Inhibition of Tubulin Polymerization
Protocol: The α and β tubulin subunits are recognized by heterodimers and self-assemble into a stable microtubule in a time-dependent manner. Assessment of the inhibitory effect of new pyrazolic chalcone conjugates on tubulin polymerization was also carried out. The progression of tubulin polymerization was thus examined by monitoring the increase in the fluorescence intensity at 450 nm (excitation wavelength of 360 nm) in a 384-plate for 1 h at 37 °C with and without the conjugate at 10 µM concentration. CA-4 (6 µM) and Vincristine (3 µM) were used as the positive control, whereas paclitaxel (3 µM) was used as the negative control.
Tubulin polymerization is a dynamic process by enhancement of fluorescence intensity due to the combination of a fluorescent reporter into the microtubules as polymerization occurs. Tubulin polymerization was performed by using a purified brain tubulin polymerization kit purchased from Cytoskeleton (BK110P, Denver, CO, USA). The tubulin polymerization assay was monitored by the increase in fluorescence over a 60 min period at 37 °C, with excitation at 360 nm and emission at 450 nm. The final buffer concentration for tubulin polymerization contained 80 mM PIPES, pH 6.9; 2 mM MgCl2; 0.5 mM EGTA; […]; and 15% glycerol. Firstly, 5 µL of the test compounds (final concentration of 10 µM) was added and then warmed to 37 °C for 1 min. The reaction was initiated by adding 50 µL of the tubulin reaction mix as specified for 6 min.

[5] = tested on: SiHa (cervical cancer cell line); test: In vitro cytotoxicity, MTT assay, SiHa; format: cell-based; conditions: Homo sapiens, 48 h, read-out: IC50 SiHa
Protocol: as §1, §2, §3

[6] = Homo sapiens, MCF7, MTT, 48 h, breast cancer, read-out: IC50 MCF-7
[7] = HEK293, MTT, 48 h, human normal cell line

Sequence of tubulin (purified brain tubulin) (P02550 whole entry): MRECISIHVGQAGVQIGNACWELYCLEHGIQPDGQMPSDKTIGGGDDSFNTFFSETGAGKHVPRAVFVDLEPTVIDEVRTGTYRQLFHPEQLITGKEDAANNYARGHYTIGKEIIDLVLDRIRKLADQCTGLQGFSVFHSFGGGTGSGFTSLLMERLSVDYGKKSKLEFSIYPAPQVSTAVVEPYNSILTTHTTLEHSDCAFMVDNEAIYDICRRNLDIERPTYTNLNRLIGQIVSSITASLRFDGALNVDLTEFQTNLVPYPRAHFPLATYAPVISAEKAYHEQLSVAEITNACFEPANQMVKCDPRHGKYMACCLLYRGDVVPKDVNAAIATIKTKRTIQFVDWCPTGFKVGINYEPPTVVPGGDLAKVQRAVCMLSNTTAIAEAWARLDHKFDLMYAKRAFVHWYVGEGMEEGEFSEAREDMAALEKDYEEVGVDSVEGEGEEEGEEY
Sequence of tubulin (purified brain tubulin) (P02554 whole entry): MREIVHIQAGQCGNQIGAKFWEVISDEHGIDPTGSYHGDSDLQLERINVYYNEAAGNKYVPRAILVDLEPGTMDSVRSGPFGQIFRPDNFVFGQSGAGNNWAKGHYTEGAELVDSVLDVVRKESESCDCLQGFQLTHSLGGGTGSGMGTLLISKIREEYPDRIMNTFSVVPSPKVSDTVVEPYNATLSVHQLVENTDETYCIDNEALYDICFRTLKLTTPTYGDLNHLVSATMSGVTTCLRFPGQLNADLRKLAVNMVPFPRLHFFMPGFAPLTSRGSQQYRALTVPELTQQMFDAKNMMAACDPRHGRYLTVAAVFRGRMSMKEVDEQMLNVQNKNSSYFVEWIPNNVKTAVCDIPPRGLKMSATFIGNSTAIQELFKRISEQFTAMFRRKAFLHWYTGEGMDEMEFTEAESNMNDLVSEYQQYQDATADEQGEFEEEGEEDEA

Compound | melting point | IC50 [1, 6] | IC50 ([2]; MTT, prostate cancer) | IC50 [3, 7] | inhibition at 10 µM [4] | IC50 ([5]; MTT, cervical cancer) | further results
Cc1ccc(C(=O)/C=C/c2cn(-c3ccccc3)nc2-c2ccc(OCc3ccccc3)cc2)cc1 [Compound 5j, (E)-3-(3-(4-(benzyloxy)phenyl)-1-phenyl-1H-pyrazol-4-yl)-1-(p-tolyl)prop-2-en-1-one] | 205 to 207 °C | – | – | – | – | – | –
O=C(/C=C/c1cn(-c2ccccc2)nc1-c1ccc(OCc2ccccc2)cc1)c1ccc(O)cc1O [Compound 5n, (E)-3-(3-(4-(benzyloxy)phenyl)-1-phenyl-1H-pyrazol-4-yl)-1-(2,4-dihydroxyphenyl)prop-2-en-1-one] | 176 to 178 °C | 6.98 ± 1.12 µM | 3.56 ± 0.63 µM | > 50 µM | 47.6% | 3.6 ± 0.45 µM | –
O=C(/C=C/c1cn(-c2ccccc2)nc1-c1ccc(OCc2ccccc2)cc1)c1ccc(Cl)cc1Cl [Compound 5m, (E)-3-(3-(4-(benzyloxy)phenyl)-1-phenyl-1H-pyrazol-4-yl)-1-(2,4dichlorophenyl)prop-2-en-1-one] | 192 to 194 °C | 17.1 ± 2.25 µM | 11.2 ± 1.44 µM | > 50 µM | 33.8% | 6.46 ± 1.52 µM | –
CC(=O)O[C@H]1C(=O)[C@@]2(C)[C@H]([C@H](OC(=O)c3ccccc3)[C@]3(O)C[C@H](OC(=O)[C@H](O)[C@@H](NC(=O)c4ccccc4)c4ccccc4)C(C)=C1C3(C)C)[C@]1(OC(C)=O)CO[C@@H]1C[C@@H]2O [Paclitaxel, paclitaxel, reference compound] | – | – | – | – | – | – | inhibition at 3 µM [4]: -25.7%
CC[C@]1(O)C[C@H]2CN(CCc3c([nH]c4ccccc34)[C@@](C(=O)OC)(c3cc4c(cc3OC)N(C=O)[C@H]3[C@@](O)(C(=O)OC)[C@H](OC(C)=O)[C@]5(CC)C=CCN6CC[C@]43[C@@H]65)C2)C1 [Vincristine, reference compound] | – | – | – | – | – | – | inhibition at 3 µM [4]: 75.5%
O=C(/C=C/c1cn(-c2ccccc2)nc1-c1ccc(OCc2ccccc2)cc1)c1ccc(F)cc1 [Compound 5f, (E)-3-(3-(4-(benzyloxy)phenyl)-1-phenyl-1H-pyrazol-4-yl)-1-(4-fluorophenyl)prop-2-en-1-one] | 168 to 170 °C | – | – | – | – | – | –
O=C(/C=C/c1cn(-c2ccccc2)nc1-c1ccc(OCc2ccccc2)cc1)c1ccc(O)cc1 [Compound 5h, (E)-3-(3-(4-(benzyloxy)phenyl)-1-phenyl-1H-pyrazol-4-yl)-1-(4-hydroxyphenyl)prop-2-en-1-one] | 167 to 169 °C | – | – | – | – | – | –
O=C(/C=C/c1cn(-c2ccccc2)nc1-c1ccc(OCc2ccccc2)cc1)c1ccc(Cl)c(Cl)c1 [Compound 5l, (E)-3-(3-(4-(benzyloxy)phenyl)-1-phenyl-1H-pyrazol-4-yl)-1-(3,4-dichlorophenyl)prop-2-en-1-one] | 243 to 245 °C | 8.23 ± 1.45 µM | 5.84 ± 1.65 µM | > 50 µM | 55.2% | 11.7 ± 2.83 µM | –
O=C(/C=C/c1cn(-c2ccccc2)nc1-c1ccc(OCc2ccccc2)cc1)c1ccc(Br)cc1 [Compound 5g, (E)-3-(3-(4-(benzyloxy)phenyl)-1-phenyl-1H-pyrazol-4-yl)-1-(4-bromophenyl)prop-2-en-1-one] | 178 to 180 °C | – | – | – | – | – | –
COc1ccc(C(=O)/C=C/c2cn(-c3ccccc3)nc2-c2ccc(OCc3ccccc3)cc2)c(OC)c1 [Compound 5p, (E)-3-(3-(4-(benzyloxy)phenyl)-1-phenyl-1H-pyrazol-4-yl)-1-(2,4-dimethoxyphenyl)prop-2-en-1-one] | 226 to 228 °C | 3.45 ± 1.28 µM | 6.52 ± 1.23 µM | > 50 µM | 51.1% | 4.98 ± 0.54 µM | –
COc1ccc(C(=O)/C=C/c2cn(-c3ccccc3)nc2-c2ccc(OCc3ccccc3)cc2)cc1 [Compound 5k, (E)-3-(3-(4-(benzyloxy)phenyl)-1-phenyl-1H-pyrazol-4-yl)-1-(4-methoxyphenyl)prop-2-en-1-one] | 187 to 189 °C | 7.23 ± 0.74 µM | 5.45 ± 0.94 µM | > 50 µM | 32.8% | 5.65 ± 0.71 µM | –
COc1ccc(/C=C\c2cc(OC)c(OC)c(OC)c2)cc1O [Combretastatin A-4, reference compound] | – | – | – | – | – | – | IC50 ([1]; Homo sapiens, MCF7, 48 h, read-out: IC50 MCF-7, MTT, 48 h, breast cancer): 4.12 to 5.23 µM; IC50 ([1]; read-out: IC50 MCF-7, MTT, 48 h, breast cancer, listed as CA-4): 4.12 ± 0.38 µM; IC50 [2]: 3.86 ± 0.39 µM; IC50 ([3]; Homo sapiens, HEK293, 48 h): 19.2 ± 1.65 µM; IC50 [5]: 5.23 ± 0.85 µM
O=C(/C=C/c1cn(-c2ccccc2)nc1-c1ccc(OCc2ccccc2)cc1)c1ccc(C(F)(F)F)cc1 [Compound 5r, (E)-3-(3-(4-(benzyloxy)phenyl)-1-phenyl-1H-pyrazol-4-yl)-1-(4-(trifluoromethyl)Phenyl)prop-2-en-1-one] | 186 to 188 °C | 14.8 ± 2.76 µM | > 50 µM | 38.3 ± 1.72 µM | 31.5% | > 50 µM | –
O=C(/C=C/c1cn(-c2ccccc2)nc1-c1ccc(OCc2ccccc2)cc1)c1ccc([N+](=O)[O-])cc1 [Compound 5i, (E)-3-(3-(4-(benzyloxy)phenyl)-1-phenyl-1H-pyrazol-4-yl)-1-(4-nitrophenyl)prop-2-en-1-one] | 223 to 225 °C | 42.7 ± 0.34 µM | 13.1 ± 1.6 µM | 45.2 ± 2.6 µM | 28.4% | 34.5 ± 0.9 µM | –
O=C(/C=C/c1cn(-c2ccccc2)nc1-c1ccc(OCc2ccccc2)cc1)c1ccccc1Cl [Compound 5b, (E)-3-(3-(4-(benzyloxy)phenyl)-1-phenyl-1H-pyrazol-4-yl)-1-(2-chlorophenyl)prop-2-en-1-one] | 182 to 184 °C | – | – | – | – | – | –
COc1ccc(C(=O)/C=C/c2cn(-c3ccccc3)nc2-c2ccc(OCc3ccccc3)cc2)cc1OC [Compound 5o, (E)-3-(3-(4-(benzyloxy)phenyl)-1-phenyl-1H-pyrazol-4-yl)-1-(3,4-dimethoxyphenyl)prop-2-en-1-one] | 206 to 208 °C | 2.13 ± 0.8 µM | 4.46 ± 0.53 µM | > 50 µM | 66.4% | 4.34 ± 0.98 µM | toxicity to the HEK cells ([3]; in words): did not exhibit significant toxicity
O=C(/C=C/c1cn(-c2ccccc2)nc1-c1ccc(OCc2ccccc2)cc1)c1cccc([N+](=O)[O-])c1 [Compound 5c, (E)-3-(3-(4-(benzyloxy)phenyl)-1-phenyl-1H-pyrazol-4-yl)-1-(3-nitrophenyl)prop-2-en-1-one] | 203 to 205 °C | – | – | – | – | – | –
COc1ccc(C(=O)/C=C/c2cn(-c3ccccc3)nc2-c2ccc(OCc3ccccc3)cc2)c(Br)c1 [Compound 5q, (E)-3-(3-(4-(benzyloxy)phenyl)-1-phenyl-1H-pyrazol-4-yl)-1-(2-bromo-4-methoxyphenyl)prop-2-en-1-one] | 174 to 176 °C | – | – | – | – | – | –
O=C(/C=C/c1cn(-c2ccccc2)nc1-c1ccc(OCc2ccccc2)cc1)c1ccc(Cl)cc1 [Compound 5e, (E)-3-(3-(4-(benzyloxy)phenyl)-1-phenyl-1H-pyrazol-4-yl)-1-(4-chlorophenyl)prop-2-en-1-one] | – | 11.5 ± 1.62 µM | 9.68 ± 1.42 µM | > 50 µM | 48.4% | 12.3 ± 1.32 µM | –
O=C(/C=C/c1cn(-c2ccccc2)nc1-c1ccc(OCc2ccccc2)cc1)c1cccc(O)c1 [Compound 5d, (E)-3-(3-(4-(benzyloxy)phenyl)-1-phenyl-1H-pyrazol-4-yl)-1-(3-hydroxyphenyl)prop-2-en-1-one] | 184 to 186 °C | 4.1 ± 1.12 µM | 2.97 ± 0.88 µM | > 50 µM | 49.8% | 4.85 ± 0.89 µM | –
